One test deals with MDA-MB-436. Kind of test: Cell growth inhibition, MDA-MB-436 breast cancer cells (WST-8). The note with it: Homo sapiens, MDA-MB-436, 96 h; 4 days; read-out: IC50 (nM) MDA-MB-436 Cell Line (WST assay). Format: cell-based. The protocol: All the breast cancer cell lines were obtained from the ATCC. Cell viability was determined using the WST-8 (2-(2-methoxy-4-nitrophenyl)-3-(4-nitrophenyl)-5-(2,4-disulfophenyl)-2H-tetrazolium, monosodium salt) based Cell Counting-8 Kit (Dojindo Molecular Technologies, Inc., Rockville, Md.) according to the manufacture's instruction. […] The absorbance was measured at 450 nm using a SPECTRAmax PLUS plate reader (Molecular Devices, Sunnyvale, Calif.). The IC50 was calculated using the GraphPad Prism 5 software.

The target of a further test is T1, recombinant BRD4 BD1 (Homo sapiens, UniProt O60885).
T1 construct: for recombinant BRD4 BD1 and BRD4 BD2 proteins
The experiment in a line: Competitive fluorescence-polarization (FP) binding assay, BRD4 BD1. Further: probe 1.5 nM. The note with it: competitive FP assay; protein 10 nM, probe […]; read-out: IC50 (nM) BRD4 BD1. The protocol: (§1) Fluorescence Polarization (FP) competitive binding studies were carried out using a FAM labeled fluorescent probe (ZBA248 or BRD-1F) to determine binding affinities of representative Compounds of the Disclosure for recombinant BRD4 BD1 and BRD4 BD2 proteins. For example, equilibrium dissociation constants (Kd) values of ZBA248 to these […] proteins were determined from protein saturation experiments by monitoring the total fluorescence polarization of mixtures composed with the fluorescent probe at a fixed concentration and proteins with increasing concentrations up to full saturation. Serial dilutions of testing protein were mixed with ZBA248 to a final volume of 200 μl in the assay buffer. […] Plates were incubated at room temperature for 30 minutes with gentle shaking to assure equilibrium. […] Kd values of ZBA248 were calculated by fitting the sigmoidal dose-dependent FP increases as a function of protein concentrations using Graphpad Prism 6.0 software (Graphpad Software, San Diego, Calif.).
(§2) The IC50 and Ki values of representative Compounds of the Disclosure were determined in a competitive binding experiment as described above. Mixtures of 10 μl of the tested compounds in assay buffer with 40% Ethylene Glycol and 190 μl of preincubated protein/probe complex solution in the assay buffer (100 mM potassium phosphate, pH 6.5, 0.01% Triton X-100) were added into assay plates which were incubated at room temperature for 30 minutes with gentle shaking. Final concentrations of proteins were 10 and 6 nM in assays for BD1 and BD2 of BRD4, respectively. […] FP values were measured as described above. IC50 values were determined by nonlinear regression fitting of the competition curves.

The target in another test is T2, recombinant BRD4 BD2 (Homo sapiens, UniProt O60885).
T2 construct: for recombinant BRD4 BD1 and BRD4 BD2 proteins
The experiment in a line: Competitive fluorescence-polarization (FP) binding assay, BRD4 BD2. Further: probe 1.5 nM. Conditions: competitive FP assay; protein 6 nM, probe […]; read-out: IC50 (nM) BRD4 BD2. The procedure:
as §1, §2

The test system of a further test is MOLM-13. Kind of test: Cell growth inhibition, MOLM-13 leukemia cells (CellTiter-Glo). Format: cell-based. Conditions: Homo sapiens, MOLM-13, 96 h; 4 days; read-out: IC50 (nM) MOLM-13 Cell Line (CellTiter-Glo assay). The procedure:
Cell growth inhibitory activity of representative Compounds of the Disclosure was determined using CellTiter-Glo® Luminescent Cell Viability Assay. […] Cell viability was determined using the CellTiter-Glo® Luminescent Cell Viability Assay Kit (Promega, Madison, Wis.) according to the manufacture's instruction. Briefly, a volume of CellTiter-Glo® Reagent equal to the volume of cell culture medium was added to each well, and then the plates were incubated at room temperature for 10-20 minutes. The luminescent signal was measured using a Tecan Infinite M1000 multimode microplate reader (Tecan, Morrisville, N.C.). The half maximal inhibitory concentration (IC50) was calculated using the GraphPad Prism 5 software (GraphPad Software, La Jolla, Calif.).

SMILES strings stand for the structures.

Broadly, the IC50 is the concentration that inhibits the measured activity by half.

For the compound `COc1cc2c(cc1-c1c(C)noc1C)[nH]c1nc(C)nc(Sc3nnc(C)n3C(C)C)c12` [Cpd. No. 3, 4-(4-((4-Isopropyl-5-methyl-4H-1,2,4-triazol-3-yl)thio)-6-methoxy-2-methyl-9H-pyrimido[4,5-b]indol-7-yl)-3,5-dimethylisoxazole], the 50% inhibitory concentration (IC50) was determined as 386 nM with MDA-MB-436, 540 nM on recombinant BRD4 BD1, 183 nM at recombinant BRD4 BD2 and 38.4 nM in the test on MOLM-13.

In the case of `COc1cc2c(cc1-c1c(C)noc1C)[nH]c1nc(C)nc(Nc3c(-c4ccccc4)nn(C(C)C)c3C)c12` [Cpd. No. 4, 7-(3,5-Dimethylisoxazol-4-yl)-N-(1-isopropyl-5-methyl-3-phenyl-1H-pyrazol-4-yl)-6-methoxy-2-methyl-9H-pyrimido[4,5-b]indol-4-amine], the IC50 with MDA-MB-436 was determined as 249 nM; at recombinant BRD4 BD1 it was 52.9 nM; at recombinant BRD4 BD2, 21.7 nM; in the test on MOLM-13, 69.3 nM.

On to `COc1cc2c(cc1-c1c(C)noc1C)[nH]c1nc(C)nc(Nc3n[nH]c(C)c3-c3ccccc3)c12` [Cpd. No. 5, 7-(3,5-Dimethylisoxazol-4-yl)-6-methoxy-2-methyl-N-(5-methyl-4-phenyl-1H-pyrazol-3-yl)-9H-pyrimido[4,5-b]indol-4-amine], for which the IC50 turned out to be 719 nM in the test with MDA-MB-436, 340 nM on recombinant BRD4 BD1, 381 nM at recombinant BRD4 BD2 and 475 nM with MOLM-13.

Consider `COc1cc2c(cc1-c1c(C)noc1C)[nH]c1nc(C)nc(Nc3cc(C)nn3-c3cccc(Cl)c3)c12` [Cpd. No. 7, N-(1-(3-Chlorophenyl)-3-methyl-1H-pyrazol-5-yl)-7-(3,5-dimethylisoxazol-4-yl)-6-methoxy-2-methyl-9H-pyrimido[4,5-b]indol-4-amine], for which the half-maximal inhibitory concentration (IC50) in the test on MDA-MB-436 worked out at 142 nM; at recombinant BRD4 BD1, 365 nM; on recombinant BRD4 BD2, 198 nM; in the test with MOLM-13, 56.3 nM.

On to `COc1cc2c(cc1-c1c(C)noc1C)[nH]c1nc(C)nc(Nc3cc(C)nn3C)c12` [Cpd. No. 8, N-(1,3-Dimethyl-1H-pyrazol-5-yl)-7-(3,5-dimethylisoxazol-4-yl)-6-methoxy-2-methyl-9H-pyrimido[4,5-b]indol-4-amine], for which the IC50 worked out at 55.1 nM in the test with MDA-MB-436, 9.7 nM at recombinant BRD4 BD1, 8 nM at recombinant BRD4 BD2 and 10.3 nM in the test on MOLM-13.

Consider `COc1cc2c(cc1-c1c(C)noc1C)[nH]c1nc(C)nc(Nc3cc(C)nn3C(C)C)c12` [Cpd. No. 9, 7-(3,5-Dimethylisoxazol-4-yl)-N-(1-isopropyl-3-methyl-1H-pyrazol-5-yl)-6-methoxy-2-methyl-9H-pyrimido[4,5-b]indol-4-amine], for which the IC50 in the test with MDA-MB-436 came to 29.6 nM; at recombinant BRD4 BD1, 6.1 nM; on recombinant BRD4 BD2, 6.3 nM; in the test on MOLM-13, 5 nM.

In the case of `COc1cc2c(cc1-c1c(C)noc1C)[nH]c1nc(C)nc(Nc3nn(C)c4ncccc34)c12` [Cpd. No. 10, 7-(3,5-Dimethylisoxazol-4-yl)-6-methoxy-2-methyl-N-(1-methyl-1H-pyrazolo[3,4-b]pyridin-3-yl)-9H-pyrimido[4,5-b]indol-4-amine], the IC50 was 138 nM in the test on MDA-MB-436, 21.5 nM at recombinant BRD4 BD1, 43.3 nM at recombinant BRD4 BD2 and 45.6 nM in the test with MOLM-13.

Take `COc1cc2c(cc1-c1c(C)noc1C)[nH]c1nc(C)nc(Nc3nn(C)c4ccncc34)c12` [Cpd. No. 11, 7-(3,5-dimethylisoxazol-4-yl)-6-methoxy-2-methyl-N-(1-methyl-1H-pyrazolo[4,3-c]pyridin-3-yl)-9H-pyrimido[4,5-b]indol-4-amine]: the IC50 turned out to be 398 nM in the test with MDA-MB-436, 240 nM on recombinant BRD4 BD1, 235 nM on recombinant BRD4 BD2 and 23.9 nM in the test with MOLM-13.

`COc1cc2c(cc1-c1c(C)noc1C)[nH]c1nc(C)nc(Nc3nn(C)c4ccc(Cl)cc34)c12` [Cpd. No. 13, N-(5-Chloro-1-methyl-1H-indazol-3-yl)-7-(3,5-dimethylisoxazol-4-yl)-6-methoxy-2-methyl-9H-pyrimido[4,5-b]indol-4-amine]: the IC50 in the test on MDA-MB-436 was 1080 nM; on recombinant BRD4 BD1 it was more than 1000 nM; on recombinant BRD4 BD2 it was more than 1000 nM; with MOLM-13 it was 108 nM.

Regarding `COc1cc2c(cc1-c1c(C)noc1C)[nH]c1nc(C)nc(Nc3cnn4ccccc34)c12` [Cpd. No. 14, 7-(3,5-Dimethylisoxazol-4-yl)-6-methoxy-2-methyl-N-(pyrazolo[1,5-a]pyridin-3-yl)-9H-pyrimido[4,5-b]indol-4-amine], the half-inhibitory concentration (IC50) in the test on MDA-MB-436 came out at 83.3 nM; at recombinant BRD4 BD1, 14.6 nM; on recombinant BRD4 BD2 it was 22.6 nM; with MOLM-13, 23.7 nM.

As for `COc1cc2c(cc1-c1c(C)noc1C)[nH]c1nc(C)nc(Nc3c(C)nn4ccccc34)c12` [Cpd. No. 15, 7-(3,5-Dimethylisoxazol-4-yl)-6-methoxy-2-methyl-N-(2-methylpyrazolo[1,5-a]pyridin-3-yl)-9H-pyrimido[4,5-b]indol-4-amine], the IC50 in the test with MDA-MB-436 was determined as 33.7 nM; at recombinant BRD4 BD1, 10.1 nM; on recombinant BRD4 BD2, 18.8 nM; in the test with MOLM-13, 5.1 nM.

With `COc1cc2c(cc1-c1c(C)noc1C)[nH]c1nc(C)nc(Nc3cnn4cccnc34)c12` [Cpd. No. 16, 7-(3,5-Dimethylisoxazol-4-yl)-6-methoxy-2-methyl-N-(pyrazolo[1,5-a]pyrimidin-3-yl)-9H-pyrimido[4,5-b]indol-4-amine], the IC50 amounted to 529 nM with MDA-MB-436, 248 nM on recombinant BRD4 BD1, 194 nM on recombinant BRD4 BD2 and 14.6 nM in the test with MOLM-13.

With `COc1cc2c(cc1-c1c(C)noc1C)[nH]c1ncnc(Nc3nn(C)c4ccccc34)c12` [Cpd. No. 17, 7-(3,5-Dimethylisoxazol-4-yl)-6-methoxy-N-(1-methyl-1H-indazol-3-yl)-9H-pyrimido[4,5-b]indol-4-amine], the IC50 in the test with MDA-MB-436 worked out at 51 nM; at recombinant BRD4 BD1, 16.7 nM; at recombinant BRD4 BD2, 82.3 nM; in the test on MOLM-13, 28.4 nM.

Take `COc1cc2c(cc1-c1c(C)noc1C)[nH]c1nc(C(C)C)nc(Nc3nn(C)c4ccccc34)c12` [Cpd. No. 18, 7-(3,5-Dimethylisoxazol-4-yl)-2-isopropyl-6-methoxy-N-(1-methyl-1H-indazol-3-yl)-9H-pyrimido[4,5-b]indol-4-amine]: the IC50 in the test with MDA-MB-436 stood at 141 nM; on recombinant BRD4 BD1, 211 nM; on recombinant BRD4 BD2, 1160 nM; in the test with MOLM-13 it was 86.2 nM.

With `COc1ccc2c(Nc3nc(C)nc4[nH]c5cc(-c6c(C)noc6C)c(OC)cc5c34)nn(C)c2c1` [Cpd. No. 19, 7-(3,5-Dimethylisoxazol-4-yl)-6-methoxy-N-(6-methoxy-1-methyl-1H-indazol-3-yl)-2-methyl-9H-pyrimido[4,5-b]indol-4-amine], the IC50 in the test with MDA-MB-436 came to 323 nM; at recombinant BRD4 BD1, 200 nM; at recombinant BRD4 BD2 it was 613 nM; with MOLM-13 it was 109 nM.

For the compound `COc1cc2c(cc1-c1c(C)noc1C)[nH]c1nc(C)nc(Nc3cc(C(F)(F)F)nn3C)c12` [Cpd. No. 21, 7-(3,5-Dimethylisoxazol-4-yl)-6-methoxy-2-methyl-N-(1-methyl-3-(trifluoromethyl)-1H-pyrazol-5-yl)-9H-pyrimido[4,5-b]indol-4-amine], the IC50 amounted to 52.7 nM in the test on MDA-MB-436, 13.3 nM on recombinant BRD4 BD1, 34.6 nM on recombinant BRD4 BD2 and 21.9 nM in the test with MOLM-13.

`COc1cc2c(cc1-c1c(C)noc1C)[nH]c1nc(C)nc(Nc3cc(C(F)(F)F)nn3C(C)C)c12` [Cpd. No. 22, 7-(3,5-Dimethylisoxazol-4-yl)-N-(1-isopropyl-3-(trifluoromethyl)-1H-pyrazol-5-yl)-6-methoxy-2-methyl-9H-pyrimido[4,5-b]indol-4-amine]: the IC50 was determined as 84.8 nM with MDA-MB-436, 49.1 nM at recombinant BRD4 BD1, 40.6 nM on recombinant BRD4 BD2 and 77.5 nM in the test with MOLM-13.
